Data reported in publication PMC4339887, “Selective Sirt2 inhibition by ligand-induced rearrangement of the active site” (Nature Communications, 2015).
“Also recorded” adds a separate entry of the source.

How the values were obtained:
Assay type in all cases: cell-based
[1] = test system: α-tubulin acetylation in HeLa cells; assay: tubulin acetylation, western blot; conditions: various concentrations, 5 h
Text: Cell samples were then separated using SDS–PAGE (12.5% (w/v) polyacrylamide), transferred to an activated nitrocellulose membrane (Bio-Rad), blocked with non-fat dry milk (Roth, 5% (w/v), TBS, 0.1% (v/v) Tween 20) and probed with an anti-acetyl-α-tubulin antibody (1:1,000, Sigma-Aldrich, T6793) and an anti-GAPDH antibody (1:2,000–1:5,000, Sigma-Aldrich, G9545) as a loading control (Fusion SL, peqlab). An uncropped blot is shown in Supplementary Fig. 8.

[2] = test system: acetylation of the microtubule network in HeLa cells; assay: immunofluorescence microscopy of acetylated microtubule network; conditions: 4 h
Text: Cells were then stained with an anti-acetyl-α-tubulin antibody (Sigma-Aldrich, T6793) and then probed with a secondary Alexa 546 conjugated anti-mouse-antibody (Invitrogen). Nuclei were counterstained with DAPI (4',6-diamidino-2-phenylindole). Coverslips were mounted with FluoroMount (Sigma-Aldrich) and sealed with DPX Mountant (Sigma-Aldrich). Images of the mounted samples were acquired on a Leica DM500 microscope equipped with a Leica DFC 395 FX camera and HBO 100 W lamp[40]. The microscope was run with the Leica Application Suite 4.4.0 software. Chroma UV filter set (No. C40888) and Leica N2.1 filter set (No. 513832) were used for DAPI and Alexa 546 signal acquisition, respectively, with a HCX FL Fluotar 40x/0.75 (dry) objective. Further details about the equipment and the settings that were used to acquire the images are found in the Supplementary Methods section. Unprocessed images are found in Supplementary Fig. 9. […]
Immunocytochemistry equipment and settings. The signal of Alexa 546 and DAPI of the same region were acquired with constant illumination parameters as grayscale 8-bit 600 dpi tiff files (1600u 1200 pixels). Alexa 546 was acquired after 639.1 ms with a gamma factor of 0.65 without multiplying. The gain was set to 1. DAPI-stained images were acquired after about 20 ms with the same parameters as the one for Alexa 546 image acquisition. The temperature in the microscope room was kept at RT. Representative regions of each samples were processed with Adobe Photoshop CS2 to generate images in RGB mode by copying the appropriate original greyscale images to the blue (nuclei, DAPI) and the red (acetylated D-tubulin signal, Alexa 546) channel, respectively. As adjustment, a minimal background subtraction was applied on all images during processing in the same manner. The resolution was changed from 600 dpi (source images) to 450 dpi without resampling (Fig. 7 of the main article). LUT (CLUT) of grayscale images of the acetylated D-tubulin signal and of the DAPI signal are shown in Supplementary Fig. 8. […]

[3] = test system: BubR1 in HeLa cells; assay: abundance of BubR1, western blot
Experimental: Cells were washed with PBS, lysed in IPLS (50 mM Tris/HCl, 150 mM NaCl, 0.5 mM EDTA, 0.5% (v/v) NP-40, pH 7.5, supplemented with Complete protease inhibitors (Roche)). Samples were pelleted and resuspended in 1 × SDS–PAGE sample buffer and heated (95 °C, 5 min). Cell samples were separated using SDS–PAGE (10% (w/v) polyacrylamide), transferred to a nitrocellulose membrane (Bio-Rad), blocked with non-fat dry milk (Roth, 5% (w/v), TBS, 0.1% (v/v) Tween 20) and probed with the anti-BubR1 (1:5,000, BD Biosciences, 612502) and anti-tubulin (1:5,000, Sigma-Aldrich, T5168) as a loading control. Uncropped blots are shown in the Supplementary Fig. 8.

[4] = test system: HeLa cells; assay: cell cycle analysis, propidium iodide flow cytometry; conditions: treated as for BubR1
Experimental: reader (BMG Polarstar, Oex 390 nm, Oem 460 nm). The amount of inhibition was determined with respect to the mixture with only DMSO.
Immunocytochemistry equipment and settings. The signal of Alexa 546 and DAPI of the same region were acquired with constant illumination parameters as grayscale 8-bit 600 dpi tiff files (1600u 1200 pixels). Alexa 546 was acquired after 639.1 ms with a gamma factor of 0.65 without multiplying. The gain was set to 1. DAPI-stained images were acquired after about 20 ms with the same parameters as the one for Alexa 546 image acquisition. The temperature in the microscope room was kept at RT. Representative regions of each samples were processed with Adobe Photoshop CS2 to generate images in RGB mode by copying the appropriate original greyscale images to the blue (nuclei, DAPI) and the red (acetylated D-tubulin signal, Alexa 546) channel, respectively. As adjustment, a minimal background subtraction was applied on all images during processing in the same manner. The resolution was changed from 600 dpi (source images) to 450 dpi without resampling (Fig. 7 of the main article). LUT (CLUT) of grayscale images of the acetylated D-tubulin signal and of the DAPI signal are shown in Supplementary Fig. 8.
Cell Cycle Analysis. […] Stained cells were subjected to flow cytometric analysis using a FACSCaliber (BD Biosciences) and analyzed by FlowJo software (Tree Star, Inc.).

[5] = test system: p53-Lys382-acetylation in U2OS cells; assay: p53 acetylation after ultraviolet exposure, western blot; conditions: 1 h pretreatment, 20 J cm^-2 UV, further 6 h
Experimental: U2OS cells (ATCC accession no. HTB-96) were seeded and cultured until they reached 90% confluency. […] Cells were incubated for an additional 6 h in the presence of the inhibitor and then lysed in IPLS (50 mM Tris/HCl, 150 mM NaCl; 0.5 mM EDTA; 0.5% (v/v) NP-40; 1 × Complete Protease Inhibitors (Roche), pH 8.0) and resuspended in 1 × Laemmli Buffer. Samples were then separated on SDS–PAGE, transferred to a nitrocellulose membrane (Bio-Rad), blocked with non-fat dry milk (Roth, 5% (w/v), TBS, 0.1% (v/v) Tween 20) and probed with anti-acetyl-p53 K382 (Cell Signaling, #2522), anti-p53 DO.1 (Santa Cruz Biotechnology, sc-126) and anti-vinculin (Cell Signaling, #4650) as a loading control. Uncropped blots are shown in the Supplementary Fig. 10.

SMILES: Cc1cc(C)nc(SCC(=O)Nc2ncc(Cc3cccc4ccccc34)s2)n1 [SirReal2]
- level of α-tubulin acetylation [1]: tubulin hyperacetylation; also recorded: significant increase
- acetylation level of the microtubule network ([2]; 20 μM): induces hyperacetylation; also recorded: partial increase; also recorded: hyperacetylation of the microtubule network
- acetylation level of the microtubule network ([2]; 50 μM): induces hyperacetylation
- abundance of BubR1 ([3]; 50 μM, in relation to DMSO control): significantly reduced
- abundance of BubR1 ([3]; various concentrations, 16 h): reduction; also recorded: dose-dependent depletion
- cell cycle distribution [4]: did not alter
- acetylation of p53 (Lys382) after ultraviolet exposure [5]: does not affect; also recorded: did not observe an increase; also recorded: does not alter
